Measurements reported in patent US10854312B2, “Selective peptide antagonists” (BIONIZ, LLC, priority 2013, dated 2020).
“Also recorded” adds a separate entry of the source. No end group written: not given here.

System: human IL-15
Test: CTLL-2 proliferation assay (WST-1), IL-15
Assay type: cell-based
Settings: murine CTLL-2 cells, 1 nM human IL-15, BNZ132-1 50 and 500 nM, WST-1 OD450
Experimental: FIG. 6A-FIG. 6E presents inhibitory spectrum of BNZ132-1 over γc- and non-γc-cytokines. […] Neutralizing antibodies against each cytokine (R & D systems, 5 μg ml^−1) were included as controls. After 20 h, the cells were pulsed with WST-1 (Clontech) and OD450 of each well was measured after 6 h. A 19-mer scrambled peptide was used as a negative control at 5 μM. The experiments were conducted in triplicate (applies to all experiments in FIG. 6A-FIG. 6E). The result represents one of at least three independent experiments (applies to all experiments in FIG. 6A-FIG. 6E). […] In PT-18 proliferation assay, PT-18β or PT-18h21Rα cells were withdrawn of mouse IL-3 for 12 h before the experiment. Cells were then incubated with 1 nM of mouse IL-4, mouse IL-9, or mouse IL-21 in the presence or absence of the indicated doses (μM) of BNZ132-1. Neutralizing antibodies to each cytokine (5 μg ml^−1, except for anti-mouse IL-21 polyclonal antibody which was used at 15 μg ml−1) and a scrambled control peptide (5 μM) were included as negative controls. WST-1 assay was conducted as described above. […] In PT-18 h21Rα survival assay, PT-18h21Rα cells are described in the text. […] Both parental and hIL-21Rα positive PT-18 cells were washed and incubated without IL-3 for 12 h before the assay. […] The Y-axis represents the cpm (count per minute) values measured by a β-counter. […]

IKEFLQRFIHIVQSIINTS [BNZ132-1]
inhibition of IL-15-induced proliferation of CTLL-2 cells: inhibited IL-2 and IL-15 with an equal efficacy; also recorded: efficiently inhibits; also recorded: inhibition of IL-2 and IL-15
